Results published in patent US5206234A, “Benzolactam analogs as antagonists of CCK” (priority 1991, dated 1993).
Read-outs that look alike come from different tables or passages of the source.

What was measured:
CCK-A receptors = conditions: cited from earlier work
humans = conditions: cited from earlier work
CCK-B receptors = conditions: cited from earlier work
[1] = test system: CCK-A and CCK-B receptors; conditions: cited from earlier work
[2] = Deschodt-Lanckman et al.; cited from earlier work
[3] = test system: exploratory behavior of the rat; conditions: McElroy et al.; cited from earlier work
anxiety (mice) = conditions: rodents; Crawley / Jones; cited from earlier work
[4] = test system: exploratory behavior of the rat; assay: Exploratory behavior in automated activity cages, novel environment; assay type: in vivo, rat (Male Sprague Dawley); conditions: CCK-8 0.5-16 μg/kg i.p., 30 minutes; F(6,87)=3.21 (p<0.01)
Method: B. The effects of CCK-8 and compound A on the exploratory behavior of the rat were examined in automated activity cages and by direct observation. It is known that exogenous CCK-8 decreases exploratory behavior in rats in a novel environment by accelerating the process of habituation. [See Crawley, Pharm. Biochem & Behav. 20, 23-27 (1984).]
Expt 1. Male Sprague Dawley rats were injected ([…].) with CCK-8 and immediately placed in automated activity cages. Activity was measured for 30 minutes past injection.
Expt 2. Male SD rats were injected (s.c.) with the CCK antagonist compound A (0.0001-10 mg/kg) and immediately placed in the automated activity cages.

| Compound | Affinity for CCK-A receptors (CCK-A receptors) | Affinity for CCK-B receptors (CCK-B receptors) | Receptor selectivity as agonist [1] | further results |
| --- | --- | --- | --- | --- |
| CSCC[C@H](NC(=O)[C@@H](N)Cc1c[nH]c2ccccc12)C(=O)N[C@@H](CC(=O)O)C(=O)N[C@@H](Cc1ccccc1)C(N)=O [CCK-4] | lower affinity | high affinity | preferential CCK-B receptor agonist | Effect in humans (panic, gastrointestinal effects) (humans; in vivo): induce panic |
| CSCC[C@H](NC(=O)[C@H](Cc1ccc(OS(=O)(=O)O)cc1)NC(=O)[C@@H](N)CC(=O)O)C(=O)NCC(=O)N[C@@H](Cc1c[nH]c2ccccc12)C(=O)N[C@@H](CCSC)C(=O)N[C@@H](CC(=O)O)C(=O)N[C@@H](Cc1ccccc1)C(N)=O [CCK-8s, H-Asp-Tyr(SO3 H)-Met-Gly-Trp-Met-Asp-Phe-NH2] | high affinity | high affinity |  | Half-life [2]: less than 1 hour |
| CNC1=Nc2ccc(Cl)cc2C(c2ccccc2)=[N+]([O-])C1 [chlordiazepoxide] |  |  |  | Spontaneous locomotor activity in rats in a novel environment [3]: increases spontaneous locomotor activity |
| CN1C(=O)CN=C(c2ccccc2)c2cc(Cl)ccc21 [diazepam] |  |  |  | Preference of the animal for the black dimly lit side (anxiety (mice)): decrease the preference of the animal for the black dimly lit side of the apparatus |
| CCK-8: exogenous CCK-8, equipotent as an agonist at CCK-A and CCK-B receptors |  |  | equipotent as an agonist at CCK-A and CCK-B receptors | Locomotor activity [4]: dose-dependently decreased locomotor activity; Effect in humans (panic, gastrointestinal effects) (humans; studies in humans): induced gastrointestinal effects but not panic symptoms |
